This note sets out measurements from patent US8318704B2, “Modulation of neural stem cells and neural progenitor cells” (NeuroNova AB, priority 2002, dated 2012).

The test system of one experiment is primary adult mouse NSC. Nature of the experiment: Primary NSC proliferation and neurosphere formation without growth factors. In kind it is cell-based. Particulars: LPA 10 μM, no EGF, 7 days (FIG. 9). As for the experimental part:
(§1) The anterior lateral wall of the lateral ventricle of 5-6 week old mice was enzymatically dissociated in 0.8 mg/ml hyaluronidase and 0.5 mg/ml trypsin in DMEM containing 4.5 mg/ml glucose and 80 units/ml DNase at 37° C. for 20 min. The cells were gently triturated and mixed with three volumes of Neurosphere medium (DMEM/F12, B27 supplement, 12.5 mM HEPES pH7.4) containing 20 ng/ml EGF (unless otherwise stated), 100 units/ml penicillin and 100 μg/ml streptomycin. After passing through a 70 μm strainer, the cells were pelleted at 160×g for 5 min. The supernatant was subsequently removed and the cells resuspended in Neurosphere medium supplemented as above, plated out in culture dishes and incubated at 37° C. Neurospheres were ready to be split approximately 7 days after plating.
Anterior lateral wall of the lateral ventricle was dissociated as described in the Methods above (Method A), and the cells resuspended in Neurosphere medium without EGF. The cell suspension was divided into a 24-well plate with triplicates of control (no addition), LPA treated and EGF (1 nM) treated cells. The final concentration of LPA was 10 μM. After 7 days the spheres were counted, inspected for growth and morphology and photographed using a Nikon Eclipse TE300 microscope and Nikon Spot Insight camera.

The test system of experiment [1] is adult mouse NSC. Nature of the experiment: Intracellular ATP assay (cell number) in neurosphere-derived NSC. To be noted: for intracellular ATP levels, and hence cell number, relative to control: 3 days; for intracellular ATP levels, and hence NSC number, factor alone: S1P 100 nM or EGF 0.1 nM alone, 3 days (FIG. 8). In kind it is cell-based. As for the experimental part:
as §1
(§2) To split neurosphere cultures, neurospheres were collected by centrifugation at 160×g for 5 min. The neurospheres were resuspended in 0.5 ml Trypsin/EDTA in HBSS (1×), incubated at 37° C. for 2 min and triturated gently to aid dissociation. Following a further 3 min incubation at 37° C. and trituration, 3 volumes of ice cold NSPH-media-EGF were added to stop further trypsin activity. The cells were pelleted at 220×g for 4 min, resuspended in fresh Neurosphere medium supplemented with 20 ng/ml EGF and 1 nM bFGF plated out and incubated at 37° C.
Mouse neurospheres, cultured as described above, from passage 2, were seeded in DMEM/F12 supplemented with B27 into a 96-well plate as single cells (10000 cells/well) to the substances to be measured were added at the concentrations indicated. After 3 days incubation, intracellular ATP was measured using the ViaLight kit (BioWhittaker) according to the manufacturer's instructions. S1P and LPA were purchased from Avanti Polar Lipids, Inc.
(§3) In assays including pertussis toxin, the toxin was added at 100 ng/ml 24 hours prior to the second passaging. New toxin was added at the same dose in combination with S1P or LPA to the cells and assayed as described above.
In the experiment analysing the combinatory effect of S1P and EGF, S1P at 100 nM was co-incubated with 0.1 nM EGF for 3 days.

Experiment [2] relates to adult mouse NSC. Nature of the experiment: 3H-thymidine incorporation into DNA of NSC. In kind it is cell-based. As to the method: as §1, §2, §3
To determine thymidine incorporation into DNA, neurospheres were split and seeded in Neurosphere medium as single cells in 96-well plates, 10 000 cells/well. Substances to be measured were added in quadruplicates and cells were incubated at 37° C. for 3 days. 3H-thymidine, 10 uCi/ml, was present the last 24 hours. Cells were harvested on to a filter paper and radioactivity was measured. 3H-thymidine (6,7 Ci/mmol) was from PerkinElmer.
Background: Dividing cells build labelled thymidine or BrdU into new DNA.

Experiment [3] concerns new born cells in the caudate putamen. Nature of the experiment: Intracerebroventricular infusion, BrdU-positive cells in caudate putamen. In kind it is in vivo, rat. To be noted: S1P 10 μM pump concentration, lateral ventricle, 0.5 μl/hr for 14 days. As to the method:
Arrival of animals: 06.1102 (30 animals), 13.11.02 (30 animals) and 20.11.02 (10 animals): Male Wistar rats, ca. 270 g, Harlan-Winkelmann Germany;
Brain infusion kit II; Alzet osmotic mini-pump model 2002 (volume of pump: 200 μl, plus ca. 30-50 μl volume in tubing/flow-moderator; pumping rate: 0.5 μl/h (=12 μl/d) for 14 days; vehicle solution aCSF (artificial cerebrospinal fluid: 148 mM NaCl, 3 mM KCl, 1.4 mM CaCl2, 0.8 mM MgCl2, 1.5 mM Na2HPO4, 0.2 mM NaH2PO4, pH 7.4, sterile filtration; stored at −20° C.
provided as 1 mg solid, dissolved in DMSO, aliquoted and kept in freezer, thawed and added aCSF to make pump solution, 0.1% DMSO maximum. […]
Quantification in ipsilateral hemisphere: two slices (see point “Immunohistochemistry”) counting 2× one box (0.25 mm^2) in caudate putamen on each section.
S1P (10 μM pump concentration) or vehicle, and BrdU (1 mg/ml pump concentration) was infused into the lateral ventricle of adult male Wistar rats at a rate of 0.5 μl/hr for 14 days. […] BrdU incorporated into the nuclei of proliferating cells was detected by DAB-immunohistochemistry. […] For quantification (FIG. 10), sections were taken in duplicate for each animal and counted manually (see above Methods). Results are expressed as the mean±SEM number of BrdU positive cells/0.25 mm^2 (S1P n=8) (Vehicle n=12) (**p<0.005 relative to Vehicle).

The nature of experiment [4]: in vitro EC50 listed in the handling of substances table.

In the case of lysophosphatidic acid [LPA], in the experiment on primary adult mouse NSC, the “sizes and number of neurospheres versus control” value is “observably greater”. Besides, in the experiment with adult mouse NSC [1] (LPA, two phases: 1-10 nM and 0.11-10 μM, non-adherent conditions (FIG. 5A)), the “intracellular ATP levels, and hence cell number, relative to control” value was “statistically significant increases”. Besides, the figures for the “incorporation of tritiated thymidine relative to control” value in the experiment with adult mouse NSC [2] (LPA 4 nM (FIG. 5B)), in the experiment on adult mouse NSC [2] (LPA 10 nM (FIG. 5B)) and in the experiment with adult mouse NSC [2] (LPA 10 μM (FIG. 5B)) were “Greater incorporation”, “no significant incorporation” and “Greater incorporation”, respectively.

In the case of “EGF: mitogen (growth factor) for neural progenitors, from BD Biosciences”, the “intracellular ATP levels, and hence NSC number, factor alone” value in the experiment on adult mouse NSC [1] is listed as “increased”.

The term EC50 denotes the concentration giving half of the maximal effect. Higher therefore signals lower potency in that assay. For `CCCCCCCCCCCCC/C=C/[C@@H](O)[C@@H](N)COP(=O)(O)O` [S1P, sphingosine-1-phosphate], in the experiment on adult mouse NSC [1], the “intracellular ATP levels, and hence NSC number, factor alone” value is “increased”. Also, in the experiment with adult mouse NSC [1] (S1P 1-100 nM, non-adherent conditions (FIG. 4A)), the “intracellular ATP levels, and hence cell number, relative to control” value was “statistically significant increase”. For the same compound, the “incorporation of tritiated thymidine relative to control” value in the experiment on adult mouse NSC [2] (S1P 1-100 nM, 3 days (FIG. 4B)) was “Greater incorporation”. The “BrdU labeling of cells in coronal sections through the caudate putamen relative to vehicle” value in experiment [3] (adult male Wistar rats) is “substantially greater number”. The “number of BrdU positive cells/0.25 mm^2 (new born cells) in the caudate putamen relative to vehicle” value in experiment [3] (n=8, p<0.005 (FIG. 10)) is “significant increase”. The compound further returned an EC50 in experiment [4] of 30 nM.
